Test results as given in patent US12528801B2 (Givaudan SA, priority 2019, dated 2026).

What was measured:
[1] = tested on: trained group of panelists; experiment: Sensory studies in model dentifrice (trained panel, tooth brushing); type: in vivo, human; details: 40 ppm in model unflavored dentifrice; for Cooling after 1 h: 1 h after brushing; for Cooling after 1 h / Max. cooling: panel-averaged score 0 to 10; for Time of max. cooling / Max. cooling: brushing with 1 g for 60 seconds; for Max. cooling: stock in propylene glycol (A) or benzyl alcohol (B)
Description: The compounds listed in Table 3 were dissolved at a concentration of 1 wt-% in propylene glycol^A or benzyl alcohol^B (respective solvents indicated in Table 3). These solutions were then dispersed in appropriate quantities to obtain the desired final concentration of 40 ppm (parts per million) of the test compound into a model, unflavored dentifrice, the formula of which is given below (ingredients obtained from the suppliers respectively indicated in parenthesis).
A trained group of panelists evaluated the dentifrice containing a compound of formula (I), by brushing their teeth with 1 g of the dentifrice using a toothbrush for 60 seconds, followed by spitting, without rinsing the mouth afterwards for the duration of the evaluation. Panelists evaluated and recorded the cooling performance as well as other sensorial and organoleptic attributes at different timepoints over a period of two hours. Cooling performance was rated on a scale from 0 to 10 with 0 being no effect and 10 being freezing. Scores were averaged for all panelists and the cooling intensity qualified as “none” (score of 0), “low” (score above 0, up to 1), “medium” (score above 1, up to 4) “strong” (score above 4, up to 8) and “freezing” (score above 8), which are summarized below in Table 3.

hTRPM8 = molecular target: T1, hTRPM8 (Homo sapiens, UniProt Q7Z2W7); experiment: Assay on TRPM8 modulators: calcium imaging (Fluo-4, Flexstation) in HEK293 cell line stably expressing hTRPM8; type: cell-based; details: HEK293 cells stably expressing hTRPM8; calcium influx, Fluo-4, Flexstation 3; sigmoidal dose-response fit
T1 construct: expressed in transfected cells
Method in brief: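 HEK293 cells stably expressing hTRPM8 were loaded with Fluo-4 AM plus probenecid and kept in HEPES buffer, pH 7.4. Calcium influx to serially diluted compounds was recorded for 120 s. Maximal activation was referenced to solvent control and 31.6 μM menthol, with EC values from sigmoidal dose-response fits.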

[2] = tested on: trained group of panelists; experiment: Sensory studies in aqueous solution (trained panel, mouth swill); type: in vivo, human; details: 10 ppm in aqueous solution; for Time of max. cooling / Max. cooling: 20 mL swilled in the mouth for 60 seconds; for Max. cooling / Cooling after 1 h: panel-averaged cooling score, scale 0 to 10; for Cooling after 1 h: 1 h after swilling
Description: The compounds as listed below in Table 2 were dissolved at a concentration of 1 wt-% in propylene glycol. These solutions were then dispensed in appropriate quantities into deionized water containing 0.5 wt-% Poloxamer 407 (which is a hydrophilic non-ionic surfactant, e.g., commercially available from SigmaAldrich) and 0.25 wt-% Cremaphor® RH40 (obtained from BASF) as solubilizer, to obtain the desired final concentration of 10 ppm (parts per million) of the respective compound.
A trained group of panelists evaluated the aqueous solutions containing test compound by swilling 20 mL of the solution in the mouth for 60 seconds, followed by spitting, without rinsing the mouth afterwards for the duration of the evaluation. Panelists evaluated and recorded the cooling performance as well as other sensorial and organoleptic attributes at different timepoints over a period of two hours. Cooling performance was rated on a scale from 0 to 10 with 0 being no effect and 10 being freezing. Scores were averaged for all panelists and the cooling intensity qualified as “none” (score of 0), “low” (score above 0, up to 1), “medium” (score above 1, up to 4) “strong” (score above 4, up to 8) and “freezing” (score above 8), which are provided in Table 2.

T1 sequence (Q7Z2W7 whole entry): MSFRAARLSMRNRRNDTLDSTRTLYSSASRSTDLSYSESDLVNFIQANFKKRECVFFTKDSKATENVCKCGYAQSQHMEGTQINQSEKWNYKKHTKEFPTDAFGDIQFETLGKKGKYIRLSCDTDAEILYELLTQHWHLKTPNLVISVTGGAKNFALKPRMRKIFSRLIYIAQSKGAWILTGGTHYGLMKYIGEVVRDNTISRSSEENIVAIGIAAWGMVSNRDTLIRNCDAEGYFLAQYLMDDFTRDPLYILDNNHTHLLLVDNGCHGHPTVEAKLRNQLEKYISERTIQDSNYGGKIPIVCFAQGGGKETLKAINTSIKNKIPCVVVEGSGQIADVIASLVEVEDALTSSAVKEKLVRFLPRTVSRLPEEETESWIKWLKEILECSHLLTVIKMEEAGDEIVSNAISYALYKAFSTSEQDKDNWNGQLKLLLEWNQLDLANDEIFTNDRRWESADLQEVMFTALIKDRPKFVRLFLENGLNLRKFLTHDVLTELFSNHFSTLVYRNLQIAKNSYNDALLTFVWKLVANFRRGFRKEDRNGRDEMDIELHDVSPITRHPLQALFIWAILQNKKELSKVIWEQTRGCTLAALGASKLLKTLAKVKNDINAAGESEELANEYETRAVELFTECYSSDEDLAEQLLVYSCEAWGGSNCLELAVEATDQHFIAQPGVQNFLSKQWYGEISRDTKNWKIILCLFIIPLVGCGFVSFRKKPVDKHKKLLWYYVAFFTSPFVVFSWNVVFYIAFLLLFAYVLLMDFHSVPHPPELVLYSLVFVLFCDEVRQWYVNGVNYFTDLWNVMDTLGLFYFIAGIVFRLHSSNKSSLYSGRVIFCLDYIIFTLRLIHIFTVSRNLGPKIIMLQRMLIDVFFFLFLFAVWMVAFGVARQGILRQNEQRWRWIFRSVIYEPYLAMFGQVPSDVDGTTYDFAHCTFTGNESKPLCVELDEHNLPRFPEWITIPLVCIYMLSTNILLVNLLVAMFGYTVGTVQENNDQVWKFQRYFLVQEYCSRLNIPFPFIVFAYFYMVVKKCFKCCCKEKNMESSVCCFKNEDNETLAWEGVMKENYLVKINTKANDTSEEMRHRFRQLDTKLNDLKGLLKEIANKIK

Row | EC50 (hTRPM8) [nM] | SMILES | Cooling after 1 h [1] | Time of max. cooling [1] [min] | Max. cooling [1] | Time of max. cooling [2] [min] | Max. cooling [2] | Cooling after 1 h [2]
1 | < 50 | CCC(C)C(=O)N1CCCCC1c1ncc(-c2ccc(C)cc2)[nH]1 (stereo not drawn) [Compound 164, 2-methyl-1-(2-(5-(p-tolyl)-1H-imidazol-2-yl)piperidin-1-yl)butan-1-one] | M (M = medium) | 10 | S (S = Strong) | 10 | S (S = Strong) | M (M = medium)
2 | < 50 | CC[C@H](C)C(=O)N1CCCCC1c1ncc(-c2ccc(C)cc2)[nH]1 (stereo partly drawn) [Compound 166, (2S)-2-methyl-1-(2-(5-(p-tolyl)-1H-imidazol-2-yl)piperidin-1-yl)butan-1-one] | M (M = medium) | 10 | S (S = Strong) | 20 | S (S = Strong) | M (M = medium)
3 | < 50 | CSC(C)C(=O)N1CCNCC1c1ncc(-c2ccc(C)cc2)[nH]1 (stereo not drawn) [Compound 206, 2-(methylthio)-1-(2-(5-(p-toly)-1H-imidazol-2-yl)piperazin-1-yl)propan-1-one] | – | – | – | – | – | –
4 | < 50 | CSC(C)C(=O)N1CCCCC1c1nc(-c2ccc(C)cc2)co1 (stereo not drawn) [Compound 207, 2-(methylthio)-1-(2-(4-(p-tolyl)oxazol-2-yl)piperidin-1-yl)propan-1-one] | – | – | – | – | – | –
5 | < 50 | CCC(C)C(=O)N1CCCCC1c1nc(-c2ccc(C)cc2)co1 (stereo not drawn) [Compound 208, 2-methyl-1-(2-(4-(p-tolyl)oxazol-2-yl)piperidin-1-yl)butan-1-one] | – | – | – | – | – | –

Continued, compound first:

Row | SMILES | EC50 (hTRPM8) [nM] | Cooling after 1 h [1] | Time of max. cooling [1] [min] | Max. cooling [1] | Time of max. cooling [2] [min] | Max. cooling [2] | Cooling after 1 h [2]
6 | CS[C@H](C)C(=O)N1CCCC[C@@H]1c1ncc(-c2ccc(C)cc2)[nH]1 [Compound 11, (R)-2-(methylthio)-1-((R)-2-(5-(p-tolyl)-1H-imidazol-2-yl)piperidin-1-yl)propan-1-one] | < 50 | M (M = medium) | 20 | S (S = Strong) | 10 | S (S = Strong) | M (M = medium)
7 | CCSC(C)C(=O)N1CCCCC1c1ncc(-c2ccc(C)cc2)[nH]1 (stereo not drawn) [Compound 95, 2-(ethylthio)-1-(2-(5-(p-toly)-1H-imidazol-2-yl)piperidin-1-yl)propan-1-one] | < 50 | L (L = Low) | 5 | M (M = medium) | 10 | M (M = medium) | M (M = medium)
8 | CSC(C)C(=O)N1CCCCC1c1ncc(-c2ccc(C(F)(F)F)cc2)[nH]1 (stereo not drawn) [Compound 124, 2-(methylthio)-1-(2-(5-(4-(trifluoromethyl)phenyl)-1H-imidazol-2-yl)piperidin-1-yl)propan-1-one] | < 50 | M (M = medium) | 30 | M (M = medium) | 20 | M (M = medium) | M (M = medium)
9 | CSC(C)C(=O)N1CCCCC1c1ncc(-c2ccc(C)s2)[nH]1 (stereo not drawn) [Compound 127, 2-(methylthio)-1-(2-(5-(5-methylthiophen-2-yl)-1H-imidazol-2-yl)piperidin-1-yl)propan-1-one] | < 50 | – | – | – | 10 | S (S = Strong) | M (M = medium)
10 | CSC(C)C(=O)N1CCCCC1c1ncc(-c2ccc(C)cc2)[nH]1 (stereo not drawn) [Compound 130, 2-(methylthio)-1-(2-(5-(p-toly)-1H-imidazol-2-yl)piperidin-1-yl)propan-1-one] | < 50 | M (M = medium) | 20 | S (S = Strong) | 20 | S (S = Strong) | M (M = medium)
11 | CSC(C)C(=O)N1CCCCC1c1ncc(-c2ccccc2)[nH]1 (stereo not drawn) [Compound 135, 2-(methylthio)-1-(2-(5-phenyl-1H-imidazol-2-yl)piperidin-1-yl)propan-1-one] | < 50 | – | – | – | 10 | M (M = medium) | L (L = Low)
12 | C=CC(C)C(=O)N1CCCCC1c1ncc(-c2ccc(C)cc2)[nH]1 (stereo not drawn) [Compound 163, 2-methyl-1-(2-(5-(p-tolyl)-1H-imidazol-2-yl)piperidin-1-yl)but-3-en-1-one] | < 50 | M (M = medium) | 5 | M (M = medium) | 10 | S (S = Strong) | M (M = medium)
